Broadly, the IC50 is the concentration needed to halve the response being measured. Usually EC50 stands for the concentration that produces a half-maximal response. A word on the AC50: it is the concentration giving half of the maximal activity seen.

In ChEMBL document CHEMBL1201862, “PubChem BioAssay data set” (2004) one finds IC50, EC50 and AC50 data, which are given here for seven compounds.

Active and inactive are the calls of the source.

The target of one experiment is Major prion protein (Homo sapiens, UniProt P04156). In kind it is functional, cell-based.
Experiment [1] addresses T1, Oxysterols receptor LXR-beta (Homo sapiens, UniProt P55055).
T1 sequence (P55055 whole entry): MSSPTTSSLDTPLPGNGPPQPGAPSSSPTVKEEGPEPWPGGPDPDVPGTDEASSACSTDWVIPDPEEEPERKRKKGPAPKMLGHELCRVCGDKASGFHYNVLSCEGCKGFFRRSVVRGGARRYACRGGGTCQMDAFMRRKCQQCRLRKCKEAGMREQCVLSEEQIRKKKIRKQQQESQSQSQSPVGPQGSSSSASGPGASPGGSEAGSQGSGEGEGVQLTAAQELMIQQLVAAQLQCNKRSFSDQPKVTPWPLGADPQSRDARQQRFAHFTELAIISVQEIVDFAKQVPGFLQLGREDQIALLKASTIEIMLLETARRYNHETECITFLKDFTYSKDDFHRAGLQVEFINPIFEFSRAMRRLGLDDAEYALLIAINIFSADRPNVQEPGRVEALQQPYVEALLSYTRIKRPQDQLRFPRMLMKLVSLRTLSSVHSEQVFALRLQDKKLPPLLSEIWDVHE
In kind it is functional, cell-based.

Experiment [2] can be described thus: Luminescence Cell-Based Dose Response HTS to Identify Activators of Luciferase Translation or Activity in H4 […] Cells. [Related pubchem assays: 1829 (Project Summary), 1814 (Primary HTS)]. Type of experiment: functional.
Experiment [3] in a line: Luminescence Cell-Based Dose Confirmation HTS to Identify Activators of 5'UTR Stem-Loop Driven Alpha-Synuclein mRNA Translation in H4 Neuroglioblastoma Cells. [Related pubchem assays: 1829 (Project Summary), 1814 (Primary HTS)]. Type of experiment: functional.
A short description of experiment [4]: inhibitors of Vif binding to APOBEC3G peptide, primary screen, biochemical, TR-FRET, GST-Vif 1-94, biotin-A3G peptide, dose response retest (AID 1117319).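 Note: TR-FRET signal of purified GST-Vif binding a biotinylated A3G peptide; inhibitors lower the FRET signal by blocking Vif and A3G binding.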 In kind it is functional. For orientation: TR-FRET usually uses a lanthanide donor and a delayed reading to cut background.
Experiment [5] has as its target T2, RNA-binding protein pos-1 (Caenorhabditis elegans, UniProt G5EF15).
T2 sequence (G5EF15 whole entry): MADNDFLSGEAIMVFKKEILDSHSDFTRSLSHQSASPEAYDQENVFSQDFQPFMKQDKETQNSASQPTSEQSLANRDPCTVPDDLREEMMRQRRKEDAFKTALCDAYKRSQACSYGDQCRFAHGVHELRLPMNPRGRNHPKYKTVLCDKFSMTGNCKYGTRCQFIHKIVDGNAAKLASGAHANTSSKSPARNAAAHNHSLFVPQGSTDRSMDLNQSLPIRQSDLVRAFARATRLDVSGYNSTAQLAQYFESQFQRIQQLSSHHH
Kind of experiment: inhibitors of POS-1/mex-3 RNA binding, dose response, biochemical, fluorescence polarization (AID 1964).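 Note: purified POS-1 fused to maltose binding protein made in E. coli; potency of compounds blocking POS-1 binding to fluorescent RNA.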 Background: In fluorescence polarisation assays a small probe gives low polarisation when free and higher when bound to something large.

In experiment [6] the target is T3, Zinc finger protein mex-5 (Caenorhabditis elegans, UniProt Q9XUB2).
T3 sequence (Q9XUB2 whole entry): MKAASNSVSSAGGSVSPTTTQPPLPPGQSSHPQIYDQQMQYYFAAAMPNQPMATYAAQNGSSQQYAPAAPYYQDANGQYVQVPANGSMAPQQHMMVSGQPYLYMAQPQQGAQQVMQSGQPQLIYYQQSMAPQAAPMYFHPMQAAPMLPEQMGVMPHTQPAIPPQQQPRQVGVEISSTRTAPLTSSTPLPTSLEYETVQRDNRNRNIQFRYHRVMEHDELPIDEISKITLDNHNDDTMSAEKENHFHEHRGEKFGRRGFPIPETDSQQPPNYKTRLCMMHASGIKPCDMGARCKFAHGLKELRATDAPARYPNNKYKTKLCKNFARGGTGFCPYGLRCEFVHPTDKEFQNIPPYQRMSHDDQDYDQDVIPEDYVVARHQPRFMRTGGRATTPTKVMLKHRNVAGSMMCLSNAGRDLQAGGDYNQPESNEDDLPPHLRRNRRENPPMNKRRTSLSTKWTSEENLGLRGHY
As to the kind of experiment: MEX-5/TCR-2 RNA interaction inhibitors, dose response, biochemical, C. elegans, fluorescence polarization (AID 1960).

Experiment [7] has as its target FAD-linked sulfhydryl oxidase ALR (Homo sapiens, UniProt P55789). Kind of experiment: inhibitors of human ALR sulfhydryl oxidase, dose response, biochemical, H2O2 detection, luminescence, cherry-pick (AID 493248).
For experiment [8], the target named is T4, Sentrin-specific protease 8 (Homo sapiens, UniProt Q96LD8).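 Note: luminescence read-out of SENP8 inhibition, dose-response confirmation following an ultra-high-throughput screen.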
T4 sequence (Q96LD8 whole entry): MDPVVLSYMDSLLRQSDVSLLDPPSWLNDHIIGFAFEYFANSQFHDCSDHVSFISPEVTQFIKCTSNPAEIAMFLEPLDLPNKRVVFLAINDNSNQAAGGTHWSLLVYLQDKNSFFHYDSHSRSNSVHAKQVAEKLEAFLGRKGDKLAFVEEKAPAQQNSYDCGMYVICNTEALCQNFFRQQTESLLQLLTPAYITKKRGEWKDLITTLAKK
Type of experiment: functional.

The target of experiment [9] is T5, Sentrin-specific protease 6 (Homo sapiens, UniProt Q9GZR1).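 Note: Luminescence-based dose-response confirmatory assay of SENP6 inhibition, following up an ultra-high-throughput screen.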
T5 sequence (Q9GZR1 whole entry): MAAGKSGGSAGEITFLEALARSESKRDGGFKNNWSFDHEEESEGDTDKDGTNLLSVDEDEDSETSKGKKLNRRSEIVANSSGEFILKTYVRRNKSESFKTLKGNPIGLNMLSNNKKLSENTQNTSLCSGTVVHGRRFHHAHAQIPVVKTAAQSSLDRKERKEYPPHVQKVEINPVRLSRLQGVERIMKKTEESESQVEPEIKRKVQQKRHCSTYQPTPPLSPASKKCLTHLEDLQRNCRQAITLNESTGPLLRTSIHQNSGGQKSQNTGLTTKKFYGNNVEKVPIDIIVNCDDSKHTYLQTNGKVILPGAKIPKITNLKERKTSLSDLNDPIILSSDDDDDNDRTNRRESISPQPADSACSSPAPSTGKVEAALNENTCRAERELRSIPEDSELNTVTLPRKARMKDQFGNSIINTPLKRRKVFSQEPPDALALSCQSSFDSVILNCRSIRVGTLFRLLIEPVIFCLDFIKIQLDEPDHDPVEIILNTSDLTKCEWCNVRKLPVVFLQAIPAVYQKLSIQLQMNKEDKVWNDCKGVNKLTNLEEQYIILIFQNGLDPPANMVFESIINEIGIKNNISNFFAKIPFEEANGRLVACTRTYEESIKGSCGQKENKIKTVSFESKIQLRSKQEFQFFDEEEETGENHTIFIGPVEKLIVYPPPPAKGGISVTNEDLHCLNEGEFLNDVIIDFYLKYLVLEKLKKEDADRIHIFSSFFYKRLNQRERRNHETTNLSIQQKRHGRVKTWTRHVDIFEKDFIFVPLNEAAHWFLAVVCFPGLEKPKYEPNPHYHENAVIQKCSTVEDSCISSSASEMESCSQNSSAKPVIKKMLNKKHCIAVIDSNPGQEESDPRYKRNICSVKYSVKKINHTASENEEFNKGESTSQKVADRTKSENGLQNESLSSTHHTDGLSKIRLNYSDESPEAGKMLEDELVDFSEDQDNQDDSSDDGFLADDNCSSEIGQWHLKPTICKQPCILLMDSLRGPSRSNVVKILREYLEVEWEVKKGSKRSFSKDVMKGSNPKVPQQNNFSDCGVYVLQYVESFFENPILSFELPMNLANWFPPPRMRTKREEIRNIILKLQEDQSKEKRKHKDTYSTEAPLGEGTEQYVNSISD
In kind it is functional.

Experiment [10] has as its target T6, Sentrin-specific protease 7 (Homo sapiens, UniProt Q9BQF6).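 Note: Luminescence-based dose-response confirmation of ultra-high-throughput screening hits, measuring inhibition of SENP7.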
T6 sequence (Q9BQF6 whole entry): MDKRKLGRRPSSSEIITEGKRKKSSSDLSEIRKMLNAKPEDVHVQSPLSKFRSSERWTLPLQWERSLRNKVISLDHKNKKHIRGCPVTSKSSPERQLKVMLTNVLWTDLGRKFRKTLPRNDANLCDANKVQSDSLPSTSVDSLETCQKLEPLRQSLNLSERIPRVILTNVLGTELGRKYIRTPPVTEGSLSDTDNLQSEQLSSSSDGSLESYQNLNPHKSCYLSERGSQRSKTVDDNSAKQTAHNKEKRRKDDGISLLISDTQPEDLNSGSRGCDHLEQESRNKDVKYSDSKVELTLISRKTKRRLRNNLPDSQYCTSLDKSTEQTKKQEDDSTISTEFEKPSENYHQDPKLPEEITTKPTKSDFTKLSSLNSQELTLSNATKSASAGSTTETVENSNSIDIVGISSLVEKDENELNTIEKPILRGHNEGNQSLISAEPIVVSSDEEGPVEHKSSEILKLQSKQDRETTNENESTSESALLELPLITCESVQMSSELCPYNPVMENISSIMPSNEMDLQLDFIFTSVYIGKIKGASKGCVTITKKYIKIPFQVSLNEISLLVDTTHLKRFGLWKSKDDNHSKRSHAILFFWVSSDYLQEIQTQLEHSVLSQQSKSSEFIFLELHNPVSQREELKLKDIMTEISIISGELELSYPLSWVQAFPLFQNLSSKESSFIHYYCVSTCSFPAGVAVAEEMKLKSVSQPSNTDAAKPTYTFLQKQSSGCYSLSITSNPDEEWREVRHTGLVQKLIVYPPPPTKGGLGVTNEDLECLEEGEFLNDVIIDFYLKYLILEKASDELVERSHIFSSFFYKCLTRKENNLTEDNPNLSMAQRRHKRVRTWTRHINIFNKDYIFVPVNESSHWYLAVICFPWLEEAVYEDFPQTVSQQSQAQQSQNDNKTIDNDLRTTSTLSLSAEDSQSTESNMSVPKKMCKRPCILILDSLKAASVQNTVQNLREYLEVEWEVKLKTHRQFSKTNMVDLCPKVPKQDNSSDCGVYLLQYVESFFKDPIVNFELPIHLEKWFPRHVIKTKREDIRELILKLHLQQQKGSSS
In kind it is functional.

The target in a further experiment is T7, Caspase-3 (Homo sapiens, UniProt P42574).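 Note: Dose-response selectivity test against caspase-3 for candidate inhibitors of sentrin-specific proteases (SENPs).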
T7 sequence (P42574 whole entry): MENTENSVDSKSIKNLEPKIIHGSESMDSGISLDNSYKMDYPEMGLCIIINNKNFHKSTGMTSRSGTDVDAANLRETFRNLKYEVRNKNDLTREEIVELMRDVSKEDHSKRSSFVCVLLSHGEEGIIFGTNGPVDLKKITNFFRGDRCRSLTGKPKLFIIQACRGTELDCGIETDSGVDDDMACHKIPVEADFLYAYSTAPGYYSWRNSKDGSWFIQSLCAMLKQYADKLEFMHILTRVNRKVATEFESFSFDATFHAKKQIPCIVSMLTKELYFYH
In kind it is functional.

The target of experiment [11] is Endoplasmic reticulum aminopeptidase 1 (Homo sapiens, UniProt Q9NZ08). Kind of experiment: ERAP1 aminopeptidase inhibitors, dose response, biochemical, cherry-pick, set 2, plate reader (AID 743314).

For the compound `CCOC(=O)CSc1nc(CC)nc2ccccc12`, the IC50 on Major prion protein is 1.08 µM (active); in the experiment “cells” it was > 138 µM (inactive).
Consider `CCCS(=O)(=O)NCc1cn2c(C)csc2n1`, for which the values for the EC50 in experiment [1], in experiment [2] and in [3] were > 67.5 µM (inactive), 12.6 µM (active) and 6.17 µM (active), respectively. Besides, the 50% inhibitory concentration (IC50) in [4] was > 100 µM (active).
As for `Cc1nnc(S)c2nn(-c3cccc(Cl)c3)c(C)c12`, the results for the 50% effective concentration (EC50) in experiment [5] and in experiment [6] were 137 µM (active) and 153 µM (active), respectively. The IC50 was 5.53 µM (active) on Major prion protein and > 138 µM (inactive) in the experiment “cells”.
Regarding `Cc1cccc(N=Nc2cnc(N)s2)c1`, the AC50 in [7] is 1.29 µM (active). Further, the EC50 in experiment [1] was > 67.6 µM (inactive). Besides, the IC50 in experiment [8] is 19.1 µM (active); in experiment [9] it was 25.8 µM (active); in experiment [10], 9.64 µM (active); on Caspase-3, 34.5 µM (active).
Turning to `Cc1ccc(-c2cn3cccnc3n2)cc1`, the EC50 in experiment [1] is > 67.6 µM (inactive).
As to `COC(=O)[C@H]1[C@H](CO)[C@H]2Cn3c(ccc(/C=C/c4ccccc4)c3=O)[C@@H]1N2CC1CCCC1`, the concentration at half-maximal activity (AC50) in [11] was 11.9 µM (active).
On the same count and under the same terms, then `CCCN1[C@@H]2c3ccc(/C=C/c4ccccc4)c(=O)n3C[C@H]1[C@H](CO)[C@H]2C(=O)NCc1ccccn1`, with 6.65 µM (active).
